Reference: PMC4838890, “Dynamic and flexible H3K9me3 bridging via HP1β dimerization establishes a plastic state of condensed chromatin” (Nature Communications, 2016)
Read-outs that look alike come from different tables or passages of the source.

Columns and labels:
H3KC9me3 mononucleosome = test: ITC, H3KC9me3 mononucleosome; type: binding, Xenopus laevis; settings: for Kd: ITC, pH 7.5, 25°C, read-out: Kd (apparent dissociation constant)
Description: Mononucleosomes were reconstituted on a 187 bp DNA fragment containing the ‘601' sequence flanked on each site by a linker of 20 bp[55]. Oligonucleosomes were reconstituted on a 12 × 200 bp × 601 template. Plasmids carrying the respective inserts were purified using a Giga kit (Qiagen, Hilden, Germany). Templates for reconstitution were released from plasmids by restriction digest with BsoBI for mononucleosomes and a mix of DdeI, BfuCI, HaeII and EcoRI for oligonucleosomes. To separate vector backbone from DNA used for chromatin assembly stepwise precipitation with polyethylene glycol (PEG) 6000/0.5 M NaCl was carried out (final PEG concentration 2–9% and 20% (w/v)). DNA pellets were washed with 70% (v/v) ethanol and dissolved in water. Double stranded, short, biotinylated DNA linkers were ligated to the DNA template before chromatin reconstitution.
ITC measurements were performed on a iTC200 calorimeter (Microcal, Malvern, UK) at 25°C in binding buffer (10 mM triethanolamine (pH 7.5), 20 or 150 mM NaCl, 0.1 mM EDTA). Reaction heats were recorded by sequences of 37 injections of 1.8 mM hHP1β, spaced at 120 s intervals, into 250 μl of 60 μM H3 peptides, nucleosomes or oligonucleosomal arrays under constant stirring at 1,000 r.p.m. (injection #1–10: 0.5 μl each; injection #11–32: 1 μl each; injection #33–37: 2 μl each). Heats of dilution, obtained by the titration of hHP1β into buffer, were substracted from raw data before analysis. Raw data were integrated, normalized and the apparent heat change (Δq) of the reaction was plotted against the molecular ratio using the Origin software. For the determination of apparent enthalpy changes (ΔHapp), the molar association constant (KA), and the stoichiometry (n) of the interaction, non-linear least-square fitting of the Δq values was performed by the Origin software using a binding model of one set of identical binding sites.
Supplementary Table 1: Summary of conditions used in the different experiments of this study.
experiment result modification template Temp. [NaCl] [MgCl2] […]

H3K9me3 oligonucleosomes = test: Chromatin sedimentation (clustering), H3K9me3 oligonucleosomes; type: biochemical, Xenopus laevis; settings: for chromatin clustering/aggregation, H3K9me3: saturating protein (5 μM) or titration, EtBr fluorescence, n=3
Method: Figure 3 hHP1β clusters oligonuclesomal arrays in dependence of H3K9me3. (a) Oligonucleosomes (2.5 nM) were incubated with increasing concentrations of hHP1β WT or I161A at 150 mM NaCl. DNA remaining in the supernatant after centrifugation was incubated with EtBr and measured by fluorescence reading. Data were normalized to amounts in absence of added protein. Averages of three independent experiments are plotted; error bars represent s.d.; n=3. (b) Analysis of the hydrodynamic radius of oligonucleosomes (10 nM; DNA labelled with ATTO 610) in the presence of increasing concentrations of hHP1β WT or I161A by FCS at 150 mM NaCl. For details on experimental setup see Supplementary Fig. 3. Error bars represent s.d.; n=3. (c) Oligonucleosomes were reconstituted after mixing H3K9me0 and H3K9me3 octamers at different ratio. Chromatin precipitation analysis at 150 mM NaCl was carried out with hHP1β WT at saturating concentration. Data are presented as in a. (d) Precipitation behaviour of oligonucleosomes (2.5 nM) was analysed at different concentrations of NaCl with hHP1β WT at saturating concentration. Data are presented as in a. (e) H3K9me3-containing chromatin was reconstituted using wild-type core histones or tailless H2A, H2B or H4. Oligonucleosomes (2.5 nM) were incubated with increasing concentrations of hHP1β WT at 150 mM NaCl. Data are presented as in a. (f) Chromatin coprecipitation of hHP1β with H3K9me3-containing oligonucleosomes reconstituted with wild-type or tailless core histones at the indicated concentrations of MgCl2. Precipitated material was analysed by western blotting. The region of the western blot membrane of the experiment at 7.5 mM MgCl2 containing histones was stained with Ponceau. (g) Oligonucleosomes at 50 mM NaCl were incubated with hHP1β WT or I161A. Complexes were fixed with 0.05% (v/v) glutaraldehyde, spotted on mica surfaces and analysed by scanning force microscopy. Control, no protein added; scale bar, 100 nm. (h) Quantification of results representatively shown in g according to the classification on the top: A, extended; B, partially condensed; C, fully condensed; D; aggregates; n>50 for each condition.
For saturating conditions, 2.7 nM oligonucleosomes were incubated with 5 μM hHP1β proteins in 100 μl sedimentation buffer (10 mM triethanolamine (pH 7.5), 150 mM NaCl, 0.1 mM EDTA) for 1 h on ice. For non-saturating conditions, 3 μM recombinant proteins were used and the NaCl concentration in the sedimentation buffer was lowered to 100 mM. After incubation, 40 μl per sample was placed into a well of a 96-well plate and kept as ‘input'. The rest was centrifuged at 16,100g for 30 min at 4°C. 40 μl supernatant was carefully removed and placed into a 96-well plate (‘output'). For quantification of chromatin DNA, the input and output samples were incubated with 40 μl 0.5 μg ml^−1 ethidium bromide and fluorescence was measured on a Plate CHAMELEON II fluorescence plate reader (Hidex, Turku, Finland) using a 360 nm (±5 nm) excitation filter and a 612 nm (±5 nm) emission filter. For each sample the ratio of DNA concentrations after and before centrifugation (output/input) was calculated.
Supplementary Table 1: Summary of conditions used in the different experiments of this study. experiment result modification template Temp. [NaCl] [MgCl2] […]
chromatin Fig. 1e,f; Fig. S1f-h; H3K9me3 oligo- 4 150 5 coprecipitation Fig. S2b nucleosomes
Fig. S7d,f; Fig.S9c nucleosomes […]
chromatin sedimentation Fig. 4a; H3K9me3 oligo- 4 150 0
(single point) Fig. S3b nucleosomes […]
chromatin sedimentation. oligo-(titration) Fig. 3a H3K9me3 nucleosomes 4 150 0 […]
crosslinking Fig. S6e,f nucleosomes […]
crosslinking Fig. S7a,b nucleosomes
EMSA Fig. 1g; Fig. 5c; n//a RT 100 5
1Preincubation of oligonucleosomes and h HP1β was performed at 4 °C . Measurements wer e carried out at the in dicated te mperature.
2in increments o f 0 .5 mM
3MgCl2 was added at the end of incubation to coprecipitate oligonucleosomes a nd bound hHP1β.

Row | Substance | better binding at the higher compared with the lower salt concentration (H3KC9me3 mononucleosome; 150 mM versus 20 mM NaCl) | Kd (H3KC9me3 mononucleosome; 20 mM NaCl) | Kd (H3KC9me3 mononucleosome; 150 mM NaCl) | concentration sufficient for maximal chromatin clustering (H3K9me3 oligonucleosomes; 150 mM NaCl) | EC50 (H3K9me3 oligonucleosomes; 150 mM NaCl, 4°C, read-out: half-maximal effect, chromatin precipitation assay) | chromatin clustering/aggregation, H3K9me3 (H3K9me3 oligonucleosomes; 150 mM NaCl) | salt concentration above which hHP1β induces clustering (H3K9me3 oligonucleosomes; salt titration, saturating hHP1β WT, 2.5 nM oligonucleosomes) | reversibility of aggregation (H3K9me3 oligonucleosomes; stepwise precipitation and resolubilization) | chromatin clustering/aggregation, H3K9me3 (H3K9me3 oligonucleosomes; 150 mM NaCl, listed as I161A)
1 | hHP1β WT: recombinant human heterochromatin protein 1β (GenBank NM_001127228), 185 aa | 2.7 fold | 59 ± 8 µM | 22 ± 8 µM | 5 µM | 0.4 µM | efficiently aggregated H3K9me3 | above 50 mM NaCl | generally reversible | –
2 | hHP1β I161A: CSD point mutant of hHP1β incapable of dimerization | – | 223 ± 30 µM | 58 ± 17 µM | – | – | failed to induce the aggregation of oligonucleosomes | – | – | neither the I161A mutant, nor the isolated CD or CSD had any effect on modified or unmodified chromatin
